Assay: antimicrobial activity (statement in words)
Type: cell-based
Settings: less polar isomer (A) versus more polar isomer (B)

Q: With `N[C@@H](C(=O)N[C@@H]1C(=O)N2C(C(=O)O)=C(Cl)CC[C@H]12)c1ccccc1` [Example 1, (6R, 7S) 7-(R)-phenylglycinamido-3-chloro-1-azabicyclo[4,2,0]oct-2-en-8-on-2-carboxylic acid] as the compound, how does the antimicrobial activity read?
A: greater antimicrobial activity
